Measurements from publication PMC5938390, “Tachyplesin Causes Membrane Instability That Kills Multidrug-Resistant Bacteria by Inhibiting the 3-Ketoacyl Carrier Protein Reductase FabG” (Frontiers in Microbiology, 2018).
Positions of bridges follow the written chain, without caps; N, C: chain ends. Residues, ends and D or L forms follow the SMILES beside them.

What was measured:
[1] = system: 293FT (human embryonic kidney cell line); conditions: concentration increased from 100 mg/L to 200 mg/L, XTT
Description: (§1) These studies were carried out as we previously reported with slight modifications and briefly introduced as follows ([Liu et al., 2017]). […] Cytotoxicity in different cell lines was assessed using the Cell Proliferation Kit II (XTT) (Roche), and cytotoxicity in hemocytes was evaluated by the increase in the absorbance at 540 nm after peptide incubation. Membrane rupture was indicated by the entrance of the DNA-binding fluorescent dye PI into MDR clinical isolates of P. aeruginosa strain 1409. Membrane translocation of N-terminal FITC-conjugated tachyplesin III (purity ≥ 95%, synthesized by GL Biochem Co., Ltd, Shanghai, China) into MDR clinical isolates of Acinetobacter baumannii strain 1408 were detected by confocal laser-scanning microscopy.
Cytotoxicity of tachyplesin III was tested by hemolysis and cell viability assays. (A) Tachyplesin III dissolved in 0.9% saline was added to mouse erythrocytes that were diluted with the same buffer. After 30 min of incubation at 37°C and then centrifugation at 1000 g for 15 min, supernatants were diluted 1:4 with 0.9% saline, and absorbance at 540 nm was tested. With 1% Triton X-100 (v/v) to determine 100% hemolysis and 0.9% saline as the negative control, the hemolysis rate was calculated as [(Absorbancesample^-Absorbancecontrol)/(Absorbance100%^-Absorbancecontrol)] × 100. Cytotoxicity was assessed using the Cell Proliferation Kit II (XTT) (Roche) for (B) L929 (mouse fibroblast cell line), (C) 293FT (human embryonic kidney cell line) and (D) A549 (adenocarcinomic human alveolar basal epithelial cell line) cells. Absorbance [A492-A690 nm] was used to quantify viable cells.

K. pneumoniae 5 = assay: MIC against clinical isolate; type: cell-based, Klebsiella pneumoniae
[2] = system: Escherichia coli strain DH5α; assay: Stability in sterile deionized water, read out as MIC against DH5α; type: physicochemical; conditions: 37°C, 2 mg/ml, stability judged by MIC against DH5α
Description: as §1
Tachyplesin III (2 mg/ml) was incubated in either sterile deionized water or mouse serum at 37°C for various lengths of time, aliquots were taken, and MICs against DH5α cells were tested. Stability of the MIC indicates the stability of tachyplesin III.

FabG gene = assay: FabG transcription level by quantitative real-time PCR; type: cell-based, A. baumannii, E. coli, K. pneumoniae, P. aeruginosa; conditions: all four bacteria, RNAs from transcriptome analysis (16 μg/ml, 30 min), 2^-ΔΔCT, rpsL reference
Description: Quantitative real-time PCR (RT-PCR) was performed following the 2^-ΔΔCT method with RNAs from the aforementioned transcriptome analysis ([Livak and Schmittgen, 2001]; [Liu C. et al., 2014]). Untreated pathogen strains were used as the calibrator strains, and corresponding ribosomal rpsL genes were used as housekeeping reference genes with the primers shown in Supplementary Table S1 ([Dumas et al., 2006]).
FIGURE 5 Expression of FabG increased after tachyplesin treatment. Quantitative real-time PCR was performed following the 2^-ΔΔCT method. Untreated pathogen strains were used as the calibrator strains, and the corresponding ribosomal rpsL genes were used as housekeeping reference gene with the primers shown in Supplementary Table S1.

FabG from S. aureus = biological target: T1, FabG from S. aureus (Staphylococcus aureus, UniProt P0A0H9); assay: Surface plasmon resonance binding; conditions: tachyplesin III on CM5 chip, FabG 1.25-10 μg/mL injected, HBS-N buffer
T1 construct: His tag (C); made in house; host or cells: E. coli BL21 DE3 (vector pET28a)
T1 sequence (P0A0H9 1-246): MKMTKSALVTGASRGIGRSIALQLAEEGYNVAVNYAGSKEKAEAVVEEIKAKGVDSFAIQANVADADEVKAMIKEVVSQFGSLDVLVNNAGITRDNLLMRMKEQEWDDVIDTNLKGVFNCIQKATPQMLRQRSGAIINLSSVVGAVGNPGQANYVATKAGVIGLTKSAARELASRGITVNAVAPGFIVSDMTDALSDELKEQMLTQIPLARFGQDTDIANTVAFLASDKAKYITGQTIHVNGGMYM
Description: (§2) N-terminal His-tagged FabG from E. coli and C-terminal His-tagged FabG from Staphylococcus aureus were cloned into the NcoI and XhoI cloning sites of the vector pET28a, expressed in BL21 DE3 E. coli and further purified with Ni resin ([Kristan et al., 2009]; [Srinivas and Cronan, 2017]). The binding interaction between tachyplesin III and FabG was analyzed by surface plasmon resonance (SPR) with a Biocore 3000 (Biocore, Piscataway, NJ, United States). Briefly, tachyplesin III was adsorbed onto a CM5 sensor chip using an amine-coupling kit (GE Healthcare, Little Chalfont, United Kingdom) to obtain approximately 1000 resonance units. […] The binding affinity of FabG for tachyplesin III was determined by BIAevaluation 3.0 software (Biacore) with a 1:1 Langmuir binding model for the kinetic calculation ([Wei et al., 2013]).
(§3) FIGURE 7 Tachyplesin III binding with FabG inhibits its enzyme activities in vitro, probably by blocking the active site. Binding interactions between tachyplesin III and FabG from E. coli (A) or from S. aureus (E) were analyzed by surface plasmon resonance (SPR) with a Biocore 3000 (Biocore, Piscataway, NJ, United States). […] Statistical significance was analyzed by one-way ANOVA followed by the Newman–Keuls multiple-comparisons test, ^∗∗p < 0.01, ^∗p < 0.05.

FabG from E. coli = biological target: T2, FabG from E. coli (Escherichia coli, UniProt P0AEK2); assay: Surface plasmon resonance binding; conditions: tachyplesin III on CM5 chip, FabG 1.25-10 μg/mL injected, HBS-N buffer
T2 construct: His tag (N); made in house; host or cells: E. coli BL21 DE3 (vector pET28a)
T2 sequence (P0AEK2 1-244): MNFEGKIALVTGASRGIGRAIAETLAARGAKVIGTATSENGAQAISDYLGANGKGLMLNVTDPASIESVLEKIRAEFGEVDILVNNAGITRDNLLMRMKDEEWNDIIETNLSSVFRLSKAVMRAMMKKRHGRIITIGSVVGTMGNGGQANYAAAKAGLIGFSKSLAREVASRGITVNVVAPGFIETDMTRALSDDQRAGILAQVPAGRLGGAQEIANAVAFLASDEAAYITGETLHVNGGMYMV
Description: as §2, §3

SMILES: CC[C@H](C)[C@@H]1NC(=O)CNC(=O)[C@H](CCCNC(=N)N)NC(=O)[C@H](Cc2ccc(O)cc2)NC(=O)[C@@H]2CSSC[C@H](NC1=O)C(=O)N[C@@H](Cc1ccc(O)cc1)C(=O)N[C@@H](CCCNC(=N)N)C(=O)N[C@@H](CCCCN)C(=O)N[C@H](C(=O)N[C@@H](CCCNC(=N)N)C(N)=O)CSSC[C@H](NC(=O)[C@H](Cc1c[nH]c3ccccc13)NC(=O)[C@@H](N)CCCCN)C(=O)N[C@@H](Cc1ccccc1)C(=O)N[C@@H](CCCNC(=N)N)C(=O)N[C@@H](C(C)C)C(=O)N2 [tachyplesin III] (H-KWCFRVCYRGICYRKCR-NH2; disulfide 3-16, 7-12 (inferred); N-terminus and C-terminus assumed)
- cell viability [1]: Dramatic decreases in viability
- 16 μg/ml tachyplesin III expressed as multiple of MIC (K. pneumoniae 5): 1/2
- time stable in sterile deionized water [2]: ~48 h
- FabG expression by quantitative real-time PCR (FabG gene): elevations
- binding with FabG (SPR) (FabG from S. aureus): could bind
- binding with FabG (SPR) (FabG from E. coli): could bind
